# PMC9032663, “α-Glucosidase Inhibitory and Antimicrobial Benzoylphloroglucinols from Garcinia schomburgakiana Fruits: In Vitro and In Silico Studies” (Molecules, 2022)
# pIC50: −log10 of the molar value. Like-named read-outs stand apart in the source and are kept apart here.
# Assays:
# cytotoxicity assay = type: cell-based; settings: human, HEK293 cells (normal cell line)
# Source text: The cytotoxic evaluation of compound 1 against the HEK293 normal cell line was applied from a previous procedure.
# Acinetobacter baumannii = test: agar well diffusion antibacterial assay; type: cell-based; settings: A. baumannii, at the tested concentration
# Experimental: (§1) The agar well diffusion method was used to evaluate the antibacterial activity of the isolated compounds on antibiotic-resistant, pathogenic bacteria Staphylococcus aureus, Enterococcus faecium, and Acinetobacter baumannii. Three bacterial pathogens were cultured in nutrient broth at 37 °C for 18 h. The cultures were diluted with sterile 0.9% NaCl to obtain bacterial solutions of 1.5 × 10^8 CFU/mL. This solution with a volume of 100 μL was spread on a Mueller–Hinton agar plate. Holes with a diameter of 8 mm were punched aseptically to create wells on the surface of the Mueller–Hinton agar. The compounds were dissolved in DMSO. The amount of 50 µg of each compound solution was inserted into the wells. The plates were incubated at 37 °C for 16–18 h, and the antibacterial activity of each compound was recorded by measuring the diameters of the inhibition zones surrounding the wells. DMSO was used as a control. […] Kanamycin was used as the positive control in this experiment.
# Staphylococcus aureus = test: agar well diffusion antibacterial assay; type: cell-based; settings: S. aureus, concentration of 50 µg/mL
# Experimental: as §1
# Enterococcus faecium = test: agar well diffusion antibacterial assay; type: cell-based; settings: E. faecium, concentration of 50 µg/mL
# Experimental: as §1
# S. aureus [1] = test: MIC determination; type: cell-based, Staphylococcus aureus
# α-glucosidase = α-glucosidase inhibition assay; type: biochemical, yeast; settings: in vitro; read-out: α-glucosidase inhibitory activity IC50
# Experimental: The enzymatic reaction was carried out at 37 °C for 20 min and stopped by adding 0.2 M Na2CO3 (130 μL). Enzymatic activity was quantified by measuring absorbance at 405 nm. All samples were analyzed in triplicate at five different concentrations around the IC50 values, and the mean values were retained.
# S. aureus [2] = system: S. aureus; parameters: method as in PMID 27458464; settings: cited from earlier work
compound,measurement,setting,value
"CC(C)=CCCC1(C)C(CC=C(C)C)CC23CCC(C)(C)OC2=C(C(=O)c2ccc(O)c(O)c2)C(=O)C1(CC=C(C)C)C3=O (centres unmarked) [Compound 1, schomburgkianone I]",pIC50,cytotoxicity assay,4.06
same,antimicrobial activity,Acinetobacter baumannii,failed to show any activity
same,zone of inhibition at 50 µg/mL,Staphylococcus aureus,21 mm
same,zone of inhibition at 50 µg/mL,Enterococcus faecium,20 mm
same,MIC,S. aureus [1]; Staphylococcus aureus,13.3 µM
same,pIC50,α-glucosidase,4.67
"NC[C@H]1O[C@H](O[C@H]2[C@H](O)[C@@H](O[C@H]3O[C@H](CO)[C@@H](O)[C@H](N)[C@H]3O)[C@H](N)C[C@@H]2N)[C@H](O)[C@@H](O)[C@@H]1O [kanamycin, reference compound]",MIC,S. aureus [1],8.26 µM
Guttiferone BL,activity against S. aureus,S. aureus [2],low activity
